Data taken from US9340590B2 (priority 2011, dated 2016).
Positions of bridges follow the written chain, without caps; N, C: chain ends. Non-standard residues stand in square brackets, D forms with d. Residues, ends and D or L forms follow the SMILES beside them. 1Nal = N[C@@H](Cc1cccc2ccccc12)C(=O)O

Legend:
Assay in all cases: cell-based
hNav1.5 = hNav1.5 (Homo sapiens, UniProt Q14524); details: IonWorks Quattro, use-dependent block, hNav1.5; read-out: IWQ Use Nav1.5
hNav1.3 = hNav1.3 (Homo sapiens, UniProt Q9NY46); details: IonWorks Quattro, use-dependent block, hNav1.3; read-out: IWQ Use Nav1.3
Sequence of hNav1.3 (Q9NY46 whole entry, looked up): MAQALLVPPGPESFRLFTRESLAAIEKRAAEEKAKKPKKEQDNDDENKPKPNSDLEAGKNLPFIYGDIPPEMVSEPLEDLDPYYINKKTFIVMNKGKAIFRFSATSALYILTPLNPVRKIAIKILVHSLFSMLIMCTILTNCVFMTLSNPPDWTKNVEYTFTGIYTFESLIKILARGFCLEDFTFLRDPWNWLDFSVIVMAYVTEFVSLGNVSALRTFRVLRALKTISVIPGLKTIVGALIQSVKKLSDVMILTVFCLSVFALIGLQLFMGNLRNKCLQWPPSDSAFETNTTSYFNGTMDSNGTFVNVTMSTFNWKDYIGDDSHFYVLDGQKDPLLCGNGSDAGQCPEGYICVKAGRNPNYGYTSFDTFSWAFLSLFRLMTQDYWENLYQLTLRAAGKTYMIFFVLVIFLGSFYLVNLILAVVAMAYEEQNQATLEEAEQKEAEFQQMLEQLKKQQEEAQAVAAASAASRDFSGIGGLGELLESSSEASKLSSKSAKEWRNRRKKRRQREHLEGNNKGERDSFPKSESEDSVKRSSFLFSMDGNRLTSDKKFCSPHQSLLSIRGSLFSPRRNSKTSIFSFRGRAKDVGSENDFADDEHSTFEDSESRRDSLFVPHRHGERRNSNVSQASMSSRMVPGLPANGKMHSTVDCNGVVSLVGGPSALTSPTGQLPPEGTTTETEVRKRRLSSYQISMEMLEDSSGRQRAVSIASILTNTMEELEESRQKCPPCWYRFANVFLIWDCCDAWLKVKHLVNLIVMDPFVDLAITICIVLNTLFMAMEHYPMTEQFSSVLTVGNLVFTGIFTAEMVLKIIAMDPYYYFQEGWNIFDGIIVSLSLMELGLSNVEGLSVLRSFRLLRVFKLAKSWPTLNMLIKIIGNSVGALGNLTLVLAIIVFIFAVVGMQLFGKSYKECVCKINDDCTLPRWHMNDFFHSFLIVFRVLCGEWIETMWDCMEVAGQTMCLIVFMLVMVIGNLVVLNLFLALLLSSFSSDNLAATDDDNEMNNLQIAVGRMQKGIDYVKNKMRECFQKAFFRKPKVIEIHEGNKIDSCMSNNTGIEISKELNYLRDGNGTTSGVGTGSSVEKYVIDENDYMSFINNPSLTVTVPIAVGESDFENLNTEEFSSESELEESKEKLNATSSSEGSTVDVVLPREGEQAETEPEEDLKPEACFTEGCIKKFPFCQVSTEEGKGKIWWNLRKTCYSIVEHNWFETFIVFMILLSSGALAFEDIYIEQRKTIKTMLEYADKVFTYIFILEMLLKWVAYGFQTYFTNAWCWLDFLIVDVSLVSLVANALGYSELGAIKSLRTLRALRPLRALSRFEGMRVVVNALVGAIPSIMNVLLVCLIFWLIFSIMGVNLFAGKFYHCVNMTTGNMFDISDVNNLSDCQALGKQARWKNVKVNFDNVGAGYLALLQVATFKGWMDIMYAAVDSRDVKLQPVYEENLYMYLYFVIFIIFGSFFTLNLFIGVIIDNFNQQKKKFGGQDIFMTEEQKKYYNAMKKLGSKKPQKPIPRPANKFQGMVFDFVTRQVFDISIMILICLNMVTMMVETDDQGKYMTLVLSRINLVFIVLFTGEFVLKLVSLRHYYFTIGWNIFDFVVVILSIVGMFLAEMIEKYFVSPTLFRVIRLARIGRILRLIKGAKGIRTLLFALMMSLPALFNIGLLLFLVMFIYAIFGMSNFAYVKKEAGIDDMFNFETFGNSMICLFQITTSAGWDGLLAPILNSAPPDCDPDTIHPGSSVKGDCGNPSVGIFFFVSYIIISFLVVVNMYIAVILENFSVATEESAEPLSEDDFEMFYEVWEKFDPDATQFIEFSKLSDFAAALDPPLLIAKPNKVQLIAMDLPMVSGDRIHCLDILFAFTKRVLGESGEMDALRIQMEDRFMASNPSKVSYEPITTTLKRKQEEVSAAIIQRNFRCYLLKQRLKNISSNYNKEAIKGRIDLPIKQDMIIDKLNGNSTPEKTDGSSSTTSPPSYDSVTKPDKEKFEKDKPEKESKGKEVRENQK

hNav1.7 = hNav1.7 (Homo sapiens, UniProt Q15858); type: cell-based; details: IonWorks Quattro, use-dependent block, hNav1.7; read-out: IWQ Use Nav1.7

Sequence of hNav1.5 (Q14524 whole entry, looked up): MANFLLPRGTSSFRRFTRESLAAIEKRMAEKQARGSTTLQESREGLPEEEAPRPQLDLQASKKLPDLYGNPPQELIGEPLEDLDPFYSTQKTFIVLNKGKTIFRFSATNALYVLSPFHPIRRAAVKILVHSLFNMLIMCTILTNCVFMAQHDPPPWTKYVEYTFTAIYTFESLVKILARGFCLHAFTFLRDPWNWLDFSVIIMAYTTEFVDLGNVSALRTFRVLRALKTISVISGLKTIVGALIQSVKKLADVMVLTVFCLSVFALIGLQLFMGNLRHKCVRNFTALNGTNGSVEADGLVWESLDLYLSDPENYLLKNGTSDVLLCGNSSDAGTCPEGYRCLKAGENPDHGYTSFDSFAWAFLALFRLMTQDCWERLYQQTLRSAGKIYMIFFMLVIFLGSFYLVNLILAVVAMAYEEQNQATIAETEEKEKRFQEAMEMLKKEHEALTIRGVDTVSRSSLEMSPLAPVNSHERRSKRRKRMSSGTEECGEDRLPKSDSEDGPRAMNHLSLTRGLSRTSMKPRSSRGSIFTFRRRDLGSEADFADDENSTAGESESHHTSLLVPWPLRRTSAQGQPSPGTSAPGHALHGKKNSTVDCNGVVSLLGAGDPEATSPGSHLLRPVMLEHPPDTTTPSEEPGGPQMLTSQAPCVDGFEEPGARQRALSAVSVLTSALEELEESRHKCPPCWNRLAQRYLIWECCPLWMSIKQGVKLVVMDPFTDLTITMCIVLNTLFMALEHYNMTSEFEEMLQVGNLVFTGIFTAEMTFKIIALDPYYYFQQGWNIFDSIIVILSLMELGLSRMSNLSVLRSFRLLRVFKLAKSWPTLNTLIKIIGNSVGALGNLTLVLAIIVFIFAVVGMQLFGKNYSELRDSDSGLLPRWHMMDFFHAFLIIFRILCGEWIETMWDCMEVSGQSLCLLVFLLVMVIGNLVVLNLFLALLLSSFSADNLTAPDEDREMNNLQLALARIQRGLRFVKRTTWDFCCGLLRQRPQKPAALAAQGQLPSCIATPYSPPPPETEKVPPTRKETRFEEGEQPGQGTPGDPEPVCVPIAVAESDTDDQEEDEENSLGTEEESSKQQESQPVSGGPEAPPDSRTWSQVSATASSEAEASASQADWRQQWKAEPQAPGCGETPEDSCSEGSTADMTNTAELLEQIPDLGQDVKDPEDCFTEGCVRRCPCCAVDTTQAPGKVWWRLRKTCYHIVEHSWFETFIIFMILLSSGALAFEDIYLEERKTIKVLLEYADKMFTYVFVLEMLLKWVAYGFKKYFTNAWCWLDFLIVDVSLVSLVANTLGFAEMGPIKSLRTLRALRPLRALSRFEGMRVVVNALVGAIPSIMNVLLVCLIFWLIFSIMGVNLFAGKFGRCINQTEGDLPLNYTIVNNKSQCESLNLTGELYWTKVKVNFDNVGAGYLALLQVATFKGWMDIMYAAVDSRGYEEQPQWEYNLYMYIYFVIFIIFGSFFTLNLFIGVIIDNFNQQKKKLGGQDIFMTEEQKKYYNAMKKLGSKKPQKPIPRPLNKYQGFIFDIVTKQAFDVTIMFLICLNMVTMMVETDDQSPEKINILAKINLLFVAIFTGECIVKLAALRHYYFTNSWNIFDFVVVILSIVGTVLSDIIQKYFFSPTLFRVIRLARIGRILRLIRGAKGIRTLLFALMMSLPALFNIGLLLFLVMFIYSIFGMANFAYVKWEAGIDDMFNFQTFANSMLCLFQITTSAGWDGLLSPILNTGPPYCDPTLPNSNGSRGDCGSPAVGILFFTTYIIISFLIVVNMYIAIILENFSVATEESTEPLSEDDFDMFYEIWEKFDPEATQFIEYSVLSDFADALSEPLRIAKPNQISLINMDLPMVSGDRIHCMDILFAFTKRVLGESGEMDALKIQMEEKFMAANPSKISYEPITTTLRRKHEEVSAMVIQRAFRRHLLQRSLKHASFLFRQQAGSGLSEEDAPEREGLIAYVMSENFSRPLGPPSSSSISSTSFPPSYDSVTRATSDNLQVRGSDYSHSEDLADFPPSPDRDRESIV

Compound	IC50 (hNav1.5)	IC50 (hNav1.3)	IC50 (hNav1.7)
CC[C@H](C)[C@@H]1NC(=O)[C@@H]2CSSC[C@@H]3NC(=O)[C@H](C(C)C)NC(=O)[C@H](CC(C)C)NC(=O)[C@H](CC(N)=O)NC(=O)[C@@H]4CCCN4C(=O)[C@H](CCCNC(=N)N)NC(=O)[C@H](CSSC[C@H](NC(=O)[C@@H](N)CC(=O)O)C(=O)N[C@@H](CC(C)C)C(=O)NCC(=O)N[C@@H](C)C(=O)N[C@@H](CCSC)C(=O)N[C@@H](CCCNC(=N)N)C(=O)N[C@@H](CCCCN)C(=O)N2)NC(=O)[C@H](CSSC[C@@H](C(=O)N[C@@H](CCCCN)C(=O)N[C@@H](Cc2ccc(O)cc2)C(=O)N[C@H](C(=O)N[C@@H](Cc2ccccc2)C(N)=O)C(C)C)NC(=O)[C@H](Cc2c[nH]c4ccccc24)NC(=O)[C@H](CCCCN)NC(=O)[C@H](Cc2c[nH]cn2)NC(=O)[C@H]([C@@H](C)O)NC(=O)[C@H](CCCNC(=N)N)NC(=O)[C@H](CO)NC3=O)NC(=O)[C@H](CCC(=O)O)NC(=O)[C@H](CC(=O)O)NC(=O)[C@H](CC(N)=O)NC(=O)[C@H](CC(=O)O)NC(=O)[C@@H]2CCCN2C1=O [compound 439] (H-DCLGAMRKCIPDNDECCRPNLVCSRTHKWCKYVF-NH2; disulfide 2-17, 9-23, 16-30)	10800 nM	4800 nM	2410 nM
CC[C@H](C)[C@@H]1NC(=O)[C@@H]2CSSC[C@@H]3NC(=O)[C@H](C(C)C)NC(=O)[C@H](CC(C)C)NC(=O)[C@H](CC(N)=O)NC(=O)[C@@H]4CCCN4C(=O)[C@H](CCCNC(=N)N)NC(=O)[C@H](CSSC[C@H](NC(=O)[C@@H](N)CC(=O)O)C(=O)N[C@@H](CC(C)C)C(=O)NCC(=O)N[C@@H](Cc4ccccc4)C(=O)N[C@@H](CCSC)C(=O)N[C@@H](CCCNC(=N)N)C(=O)N[C@@H](CCCCN)C(=O)N2)NC(=O)[C@H](CSSC[C@@H](C(=O)N[C@@H](CCCCN)C(=O)N[C@@H](Cc2ccc(O)cc2)C(=O)N[C@@H](Cc2cccc4ccccc24)C(=O)N[C@@H](Cc2ccccc2)C(N)=O)NC(=O)[C@H](Cc2c[nH]c4ccccc24)NC(=O)[C@H](CCCNC(=N)N)NC(=O)[C@H](Cc2c[nH]cn2)NC(=O)[C@H]([C@@H](C)O)NC(=O)[C@H](CCCNC(=N)N)NC(=O)[C@H](CO)NC3=O)NC(=O)[C@H](CCCCN)NC(=O)[C@H](CC(=O)O)NC(=O)[C@H](CC(N)=O)NC(=O)[C@H](CC(=O)O)NC(=O)[C@@H]2CCCN2C1=O [compound 442] (H-DCLGFMRKCIPDNDKCCRPNLVCSRTHRWCKY[1Nal]F-NH2; disulfide 2-17, 9-23, 16-30)	> 5000 nM	40 nM	30 nM
CC[C@H](C)[C@@H]1NC(=O)[C@@H]2CSSC[C@@H]3NC(=O)[C@H](C(C)C)NC(=O)[C@H](CC(C)C)NC(=O)[C@H](CC(N)=O)NC(=O)[C@@H]4CCCN4C(=O)[C@H](CCCNC(=N)N)NC(=O)[C@H](CSSC[C@H](NC(=O)[C@@H](N)CC(=O)O)C(=O)N[C@@H](CC(C)C)C(=O)NCC(=O)N[C@@H](Cc4ccccc4)C(=O)N[C@@H](CCSC)C(=O)N[C@@H](CCCNC(=N)N)C(=O)N[C@@H](CCCCN)C(=O)N2)NC(=O)[C@H](CSSC[C@@H](C(=O)N[C@@H](CCCCN)C(=O)N[C@@H](Cc2c[nH]c4ccccc24)C(=O)N[C@H](C(=O)N[C@@H](Cc2ccccc2)C(N)=O)C(C)C)NC(=O)[C@H](Cc2c[nH]c4ccccc24)NC(=O)[C@H](CCCNC(=N)N)NC(=O)[C@H](Cc2c[nH]cn2)NC(=O)[C@H]([C@@H](C)O)NC(=O)[C@H](CCCNC(=N)N)NC(=O)[C@H](CO)NC3=O)NC(=O)[C@H](CCCCN)NC(=O)[C@H](CC(=O)O)NC(=O)[C@H](CC(N)=O)NC(=O)[C@H](CC(=O)O)NC(=O)[C@@H]2CCCN2C1=O [compound 443] (H-DCLGFMRKCIPDNDKCCRPNLVCSRTHRWCKWVF-NH2; disulfide 2-17, 9-23, 16-30)	4920 nM	70 nM	70 nM
CC[C@H](C)[C@@H]1NC(=O)[C@@H]2CSSC[C@@H]3NC(=O)[C@H](C(C)C)NC(=O)[C@H](CC(C)C)NC(=O)[C@H](CC(N)=O)NC(=O)[C@@H]4CCCN4C(=O)[C@H](CCCNC(=N)N)NC(=O)[C@H](CSSC[C@H](NC(=O)[C@@H](N)CC(=O)O)C(=O)N[C@@H](CC(C)C)C(=O)NCC(=O)N[C@@H](Cc4ccccc4)C(=O)N[C@@H](CCSC)C(=O)N[C@@H](CCCNC(=N)N)C(=O)N[C@@H](CCCCN)C(=O)N2)NC(=O)[C@H](CSSC[C@@H](C(=O)N[C@@H](CCCCN)C(=O)N[C@@H](Cc2ccc(O)cc2)C(=O)N[C@@H](Cc2c[nH]c4ccccc24)C(=O)N[C@@H](Cc2ccccc2)C(N)=O)NC(=O)[C@H](Cc2c[nH]c4ccccc24)NC(=O)[C@H](CCCNC(=N)N)NC(=O)[C@H](Cc2c[nH]cn2)NC(=O)[C@H]([C@@H](C)O)NC(=O)[C@H](CCCNC(=N)N)NC(=O)[C@H](CO)NC3=O)NC(=O)[C@H](CCCCN)NC(=O)[C@H](CC(=O)O)NC(=O)[C@H](CC(N)=O)NC(=O)[C@H](CC(=O)O)NC(=O)[C@@H]2CCCN2C1=O [compound 444] (H-DCLGFMRKCIPDNDKCCRPNLVCSRTHRWCKYWF-NH2; disulfide 2-17, 9-23, 16-30)	> 5000 nM	40 nM	30 nM
CC[C@H](C)[C@@H]1NC(=O)[C@@H]2CSSC[C@@H]3NC(=O)[C@H](C(C)C)NC(=O)[C@H](CC(C)C)NC(=O)[C@H](CC(N)=O)NC(=O)[C@@H]4CCCN4C(=O)[C@H](CCCNC(=N)N)NC(=O)[C@H](CSSC[C@H](NC(=O)[C@@H](N)CC(=O)O)C(=O)N[C@@H](CC(C)C)C(=O)NCC(=O)N[C@@H](Cc4ccccc4)C(=O)N[C@@H](CCSC)C(=O)N[C@@H](CCCNC(=N)N)C(=O)N[C@@H](CCCCN)C(=O)N2)NC(=O)[C@H](CSSC[C@@H](C(=O)N[C@@H](CCCCN)C(=O)N[C@@H](Cc2ccc(O)cc2)C(=O)N[C@H](C(=O)N[C@@H](Cc2ccccc2)C(N)=O)C(C)C)NC(=O)[C@H](Cc2c[nH]c4ccccc24)NC(=O)[C@H](CCCNC(=N)N)NC(=O)[C@H](Cc2c[nH]cn2)NC(=O)[C@H](CC(C)C)NC(=O)[C@H](CCCNC(=N)N)NC(=O)[C@H](CO)NC3=O)NC(=O)[C@H](CCCCN)NC(=O)[C@H](CC(=O)O)NC(=O)[C@H](CC(N)=O)NC(=O)[C@H](CC(=O)O)NC(=O)[C@@H]2CCCN2C1=O [compound 445] (H-DCLGFMRKCIPDNDKCCRPNLVCSRLHRWCKYVF-NH2; disulfide 2-17, 9-23, 16-30)	> 5000 nM	60 nM	30 nM
CC[C@H](C)[C@@H]1NC(=O)[C@@H]2CSSC[C@@H]3NC(=O)[C@H](C(C)C)NC(=O)[C@H](CC(C)C)NC(=O)[C@H](CC(N)=O)NC(=O)[C@@H]4CCCN4C(=O)[C@H](CCCNC(=N)N)NC(=O)[C@H](CSSC[C@H](NC(=O)[C@@H](N)CC(=O)O)C(=O)N[C@@H](CC(C)C)C(=O)NCC(=O)N[C@@H](Cc4ccccc4)C(=O)N[C@@H](CCSC)C(=O)N[C@@H](CCCNC(=N)N)C(=O)N[C@@H](CCCCN)C(=O)N2)NC(=O)[C@H](CSSC[C@@H](C(=O)N[C@@H](CCCCN)C(=O)N[C@@H](Cc2c[nH]c4ccccc24)C(=O)N[C@H](C(=O)N[C@@H](Cc2ccccc2)C(N)=O)C(C)C)NC(=O)[C@H](Cc2c[nH]c4ccccc24)NC(=O)[C@H](CCCCN)NC(=O)[C@H](Cc2c[nH]cn2)NC(=O)[C@H](CC(C)C)NC(=O)[C@H](CCCNC(=N)N)NC(=O)[C@H](CO)NC3=O)NC(=O)[C@H](CCCCN)NC(=O)[C@H](CC(=O)O)NC(=O)[C@H](CC(N)=O)NC(=O)[C@H](CC(=O)O)NC(=O)[C@@H]2CCCN2C1=O [compound 446] (H-DCLGFMRKCIPDNDKCCRPNLVCSRLHKWCKWVF-NH2; disulfide 2-17, 9-23, 16-30)	> 5000 nM	60 nM	40 nM
CC[C@H](C)[C@@H]1NC(=O)[C@@H]2CSSC[C@@H]3NC(=O)[C@H](C(C)C)NC(=O)[C@H](CC(C)C)NC(=O)[C@H](CC(N)=O)NC(=O)[C@@H]4CCCN4C(=O)[C@H](CCCNC(=N)N)NC(=O)[C@H](CSSC[C@H](NC(=O)[C@@H](N)CC(=O)O)C(=O)N[C@@H](CC(C)C)C(=O)NCC(=O)N[C@@H](Cc4ccccc4)C(=O)N[C@@H](CCSC)C(=O)N[C@@H](CCCNC(=N)N)C(=O)N[C@@H](CCCCN)C(=O)N2)NC(=O)[C@H](CSSC[C@@H](C(=O)N[C@@H](CCCCN)C(=O)N[C@@H](Cc2ccc(O)cc2)C(=O)N[C@@H](Cc2c[nH]c4ccccc24)C(=O)N[C@@H](Cc2ccccc2)C(N)=O)NC(=O)[C@H](Cc2c[nH]c4ccccc24)NC(=O)[C@H](CCCCN)NC(=O)[C@H](Cc2c[nH]cn2)NC(=O)[C@H](CC(C)C)NC(=O)[C@H](CCCNC(=N)N)NC(=O)[C@H](CO)NC3=O)NC(=O)[C@H](CCCCN)NC(=O)[C@H](CC(=O)O)NC(=O)[C@H](CC(N)=O)NC(=O)[C@H](CC(=O)O)NC(=O)[C@@H]2CCCN2C1=O [compound 447] (H-DCLGFMRKCIPDNDKCCRPNLVCSRLHKWCKYWF-NH2; disulfide 2-17, 9-23, 16-30)	> 5000 nM	20 nM	30 nM
CC[C@H](C)[C@@H]1NC(=O)[C@@H]2CSSC[C@@H]3NC(=O)[C@H](C(C)C)NC(=O)[C@H](CC(C)C)NC(=O)[C@H](CC(N)=O)NC(=O)[C@@H]4CCCN4C(=O)[C@H](CCCNC(=N)N)NC(=O)[C@H](CSSC[C@H](NC(=O)[C@@H](N)CC(=O)O)C(=O)N[C@@H](CC(C)C)C(=O)NCC(=O)N[C@@H](Cc4ccccc4)C(=O)N[C@@H](Cc4c[nH]c5ccccc45)C(=O)N[C@@H](CCCNC(=N)N)C(=O)N[C@@H](CCCCN)C(=O)N2)NC(=O)[C@H](CSSC[C@@H](C(=O)N[C@@H](CCCCN)C(=O)N[C@@H](Cc2ccc(O)cc2)C(=O)N[C@H](C(=O)N[C@@H](Cc2ccccc2)C(N)=O)C(C)C)NC(=O)[C@H](Cc2c[nH]c4ccccc24)NC(=O)[C@H](CCCNC(=N)N)NC(=O)[C@H](Cc2c[nH]cn2)NC(=O)[C@H]([C@@H](C)O)NC(=O)[C@H](CCCNC(=N)N)NC(=O)[C@H](CO)NC3=O)NC(=O)[C@H](CCCCN)NC(=O)[C@H](CC(=O)O)NC(=O)[C@H](CC(N)=O)NC(=O)[C@H](CC(=O)O)NC(=O)[C@@H]2CCCN2C1=O [compound 448] (H-DCLGFWRKCIPDNDKCCRPNLVCSRTHRWCKYVF-NH2; disulfide 2-17, 9-23, 16-30)	2910 nM	10 nM	10 nM
